Data on twelve molecules can be found in patent US9334246B2, “Substituted triazines for malaria treatment and chemoprophylaxis” (The United States of America, as represented by the …, priority 2013, dated 2016).

For one data set, the system named is P. falciparum D6. The data set can be described thus: Malaria SYBR Green Fluorescence Assay, D6 strain. The class given is cell-based, Plasmodium falciparum. The settings on record: SYBR Green Assay.
For a further data set, the system named is P. falciparum W2. The data set can be described thus: Malaria SYBR Green Fluorescence Assay, W2 strain. Format: cell-based, Plasmodium falciparum. The settings on record: SYBR Green Assay.
In a further data set the test system is P. falciparum C235. The data set can be described thus: Malaria SYBR Green Fluorescence Assay, C235 strain. Format: cell-based, Plasmodium falciparum. Particulars: SYBR Green Assay.
The subject of a further data set is P. berghei. The data set can be described thus: Thompson Test, in vivo mouse malaria assay. More on the design: species or system mice (ICR strain).
Data set [1] addresses hERG potassium ion channel (Homo sapiens, UniProt Q12809). The data set can be described thus: hERG patch clamp assay (% inhibition at 10 μM). Particulars: % inhibition at 10 μM, patch clamp. Background: The hERG channel carries a current that helps repolarise heart muscle cells.
Where [2] appears, read: (160 × 3): 160 mg/kg for 3 days.

Sequence of hERG potassium ion channel (Q12809 whole entry): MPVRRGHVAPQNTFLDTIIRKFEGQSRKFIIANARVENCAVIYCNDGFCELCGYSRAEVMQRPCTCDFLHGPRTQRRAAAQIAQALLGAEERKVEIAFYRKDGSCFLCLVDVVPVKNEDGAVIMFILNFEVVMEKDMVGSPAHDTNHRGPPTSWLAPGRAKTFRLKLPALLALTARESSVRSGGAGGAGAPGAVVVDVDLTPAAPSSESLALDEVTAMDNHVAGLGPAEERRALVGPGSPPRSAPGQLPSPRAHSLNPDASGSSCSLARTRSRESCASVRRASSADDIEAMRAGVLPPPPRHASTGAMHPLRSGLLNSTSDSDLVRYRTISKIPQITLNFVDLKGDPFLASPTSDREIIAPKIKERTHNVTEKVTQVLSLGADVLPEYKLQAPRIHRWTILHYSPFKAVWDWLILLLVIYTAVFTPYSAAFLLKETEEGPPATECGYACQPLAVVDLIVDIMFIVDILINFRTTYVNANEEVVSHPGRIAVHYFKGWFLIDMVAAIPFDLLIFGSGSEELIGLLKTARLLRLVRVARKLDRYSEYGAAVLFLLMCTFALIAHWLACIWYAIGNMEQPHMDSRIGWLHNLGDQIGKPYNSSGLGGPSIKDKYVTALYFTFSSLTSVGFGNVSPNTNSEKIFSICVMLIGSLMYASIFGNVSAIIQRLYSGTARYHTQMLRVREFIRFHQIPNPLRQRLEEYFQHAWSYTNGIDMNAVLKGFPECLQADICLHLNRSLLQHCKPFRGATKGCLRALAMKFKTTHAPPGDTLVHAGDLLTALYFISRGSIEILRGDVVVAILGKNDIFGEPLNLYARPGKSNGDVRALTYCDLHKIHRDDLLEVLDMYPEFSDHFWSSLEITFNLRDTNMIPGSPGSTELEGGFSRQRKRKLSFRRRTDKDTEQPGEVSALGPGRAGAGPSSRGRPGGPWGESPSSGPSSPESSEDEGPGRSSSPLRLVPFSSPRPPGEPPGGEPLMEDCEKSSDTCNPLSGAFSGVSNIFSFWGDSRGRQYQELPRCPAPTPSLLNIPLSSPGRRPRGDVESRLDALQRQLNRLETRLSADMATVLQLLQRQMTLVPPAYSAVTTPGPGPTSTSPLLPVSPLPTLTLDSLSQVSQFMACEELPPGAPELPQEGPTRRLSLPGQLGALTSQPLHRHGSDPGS

`CN1CCN(c2nc(-c3ccc([S+](C)[O-])cc3)nc(C(Cl)(Cl)Cl)n2)CC1` (stereo not drawn) [Compound 72] displayed a D6 with P. falciparum D6 of 33 ng/mL. For the same molecule, the W2 in the data set with P. falciparum W2 worked out at 33 ng/mL. The same molecule came in with a C235 with P. falciparum C235 of 27 ng/mL. In addition, the “In vivo Results Thompson Assay (n/N Cures or Suppressive)” value (“In vivo Results Thompson Assay” for short) in the data set with P. berghei ((80 × 3): 80 mg/kg for 3 days) was “(80 × 3) Suppressive”. Moreover, the hERG in data set [1] was determined as 41%.
Consider `CCN1CCCC(Nc2nc(-c3ccc(C(C)(C)C)cc3)nc(C(Cl)(Cl)Cl)n2)C1` (stereo not drawn) [Compound 79], for which the D6 with P. falciparum D6 was 26 ng/mL. The molecule also gave a W2 with P. falciparum W2 of 25 ng/mL. The same molecule returned a C235 with P. falciparum C235 of 36 ng/mL. In the data set on P. berghei ((80 × 3): 80 mg/kg for 3 days), the “In vivo Results Thompson Assay” value is recorded as “(80 × 3) Suppressive”. This molecule also yielded a hERG in data set [1] of 51%.
The corresponding values for `CS(=O)(=O)c1ccc(-c2nc(N3CCCNCC3)nc(C(Cl)(Cl)Cl)n2)cc1` [Compound 96] are 70 ng/mL, 51 ng/mL, 96 ng/mL, “(80 × 3) Suppressive” and 65%.
The molecule `CC(C)(N)CNc1nc(-c2ccc(S(C)(=O)=O)cc2)nc(C(Cl)(Cl)Cl)n1` [Compound 97] returned a D6 with P. falciparum D6 of 26 ng/mL. In the data set on P. falciparum W2, this molecule gave a W2 of 20 ng/mL. In the data set on P. falciparum C235, this molecule yielded a C235 of 33 ng/mL. In addition, the “In vivo Results Thompson Assay” value with P. berghei ((80 × 3): 80 mg/kg for 3 days) is “(80 × 3) Suppressive;”; in the data set with P. berghei (setting [2]), “(160 × 3) Suppressive”. Also, the hERG in data set [1] came to 35%.
Molecule `CN1CCN(c2nc(-c3ccc(C(Cl)(Cl)Cl)cc3)nc(C(Cl)(Cl)Cl)n2)CC1` [Compound 99] displayed a D6 in the data set with P. falciparum D6 of 59 ng/mL. The molecule also yielded a W2 in the data set on P. falciparum W2 of 12 ng/mL. This molecule also had a C235 with P. falciparum C235 of 21 ng/mL. Further, in the data set on P. berghei ((80 × 3): 80 mg/kg for 3 days), the “In vivo Results Thompson Assay” value is recorded as “(80 × 3) Suppressive”. In data set [1], the hERG amounted to 16%.
The corresponding values for `Cc1ccc(-c2nc(N3CCCNCC3)nc(C(Cl)(Cl)Cl)n2)cc1` [Compound 102] are 58 ng/mL, 44 ng/mL, 48 ng/mL, “(80 × 3) Suppressive” and 47%.
The corresponding values for `FC(F)(F)c1cccc(-c2nc(N3CCCNCC3)nc(C(Cl)(Cl)Cl)n2)c1` [Compound 108] are 70 ng/mL, 47 ng/mL, 82 ng/mL, “(80 × 3) Suppressive” and 28%.
In turn, `CN1CCCN(c2nc(-c3ccc(Cl)c(Cl)c3)nc(C(Cl)(Cl)Cl)n2)CC1` [Compound 113] registered a D6 with P. falciparum D6 of 33 ng/mL. The molecule also returned a W2 with P. falciparum W2 of 23 ng/mL. Besides, in the data set on P. falciparum C235, the C235 is listed as 35 ng/mL. The “In vivo Results Thompson Assay” value is on record as “Suppressive” in the data set on P. berghei ((80 × 3): 80 mg/kg for 3 days) and 4/5 in the data set with P. berghei (setting [2]). The molecule further came in with a hERG in data set [1] of 64%.
`OCCN1CCN(c2nc(-c3ccc(C(Cl)(Cl)Cl)cc3)nc(C(Cl)(Cl)Cl)n2)CC1` [Compound 119] returned a D6 in the data set on P. falciparum D6 of 29 ng/mL. Besides, the W2 in the data set with P. falciparum W2 amounted to 12 ng/mL. Besides, the C235 in the data set on P. falciparum C235 came to 46 ng/mL. In addition, the “In vivo Results Thompson Assay” value was 1/5 with P. berghei ((40 × 3): 40 mg/kg for 3 days) and 4/5 with P. berghei ((80 × 3): 80 mg/kg for 3 days). Further, the hERG in data set [1] is listed as 18%.
In the case of `COc1cccc(-c2nc(NC3CCN(C)CC3)nc(C(Cl)(Cl)Cl)n2)c1` [Compound 193], the D6 with P. falciparum D6 came out at 29 ng/mL. The same molecule gave a W2 in the data set on P. falciparum W2 of 22 ng/mL. Also, the C235 with P. falciparum C235 is recorded as 17 ng/mL. Also, the “In vivo Results Thompson Assay” value in the data set with P. berghei ((80 × 3): 80 mg/kg for 3 days) is “(80 × 3) Suppressive”. This molecule also showed a hERG in data set [1] of 93%.
In the case of `CC(C)(N)CNc1nc(-c2cc(Cl)cc(Cl)c2)nc(C(Cl)(Cl)Cl)n1` [Compound 195], the D6 in the data set with P. falciparum D6 amounted to 6 ng/mL. In addition, in the data set with P. falciparum W2, the W2 is recorded as 6 ng/mL. The molecule further yielded a C235 in the data set on P. falciparum C235 of 3 ng/mL. The figures for the “In vivo Results Thompson Assay” value in the data set with P. berghei ((40 × 3): 40 mg/kg for 3 days), with P. berghei ((80 × 3): 80 mg/kg for 3 days) and in the data set on P. berghei (setting [2]) were 2/5, 5/5 and “Cures; (160 × 3) 5/5 Cures”, respectively. Besides, in data set [1], the hERG was 3%.
Turning to `CC(C)(N)CNc1nc(-c2cccc(C(F)(F)F)c2)nc(C(Cl)(Cl)Cl)n1` [Compound 214], the D6 in the data set on P. falciparum D6 stood at 19 ng/mL. The W2 with P. falciparum W2 is recorded as 11 ng/mL. Moreover, the C235 in the data set with P. falciparum C235 is given as 10 ng/mL. Besides, the “In vivo Results Thompson Assay” value in the data set with P. berghei ((40 × 3): 40 mg/kg for 3 days) is 2/5; in the data set with P. berghei ((80 × 3): 80 mg/kg for 3 days), 5/5. In addition, the hERG in data set [1] is on record as 42%.
